This note sets out measurements from patent publication US9492482B2, “Engineered cells expressing multiple immunomodulators and uses thereof” (Intrexon Corporation, priority 2008, dated 2016).

This experiment concerns DC.RheoIL12. Nature of the experiment: IL-12 secretion from DC.RheoIL12 with or without activating ligand. The format is cell-based. As to conditions: in the presence of the activating ligand RG-115830 but not in the absence of the ligand. The method, then:
In one embodiment, the invention provides an engineered population of immune cells and TSC. In one embodiment, day 7 cultured DC are treated with recombinant adenovirus encoding an immunomodulator and/or IL-12 driven off a constitutive or inducible promoter, or are infected with mock, control adenovirus vector (rAdψ5), over a range of multiplicity of infection (MOIs). After 48 h, infected DC are harvested and analyzed for phenotype and for production of an immunomodulator and/or IL-12 using a specific ELISA kit (BD-PharMingen, San Diego, Calif.), with a lower level of detection of 62.5 pg/ml.

Consider `CCCC(N(NC(=O)c1cccc(OC)c1CC)C(=O)c1cc(C)cc(C)c1)C(C)(C)C` (stereo not shown) [RG-115830, 3,5-Dimethyl-benzoic acid N-(1-tert-butyl-butyl)-N′-(2-ethyl-3-methoxy-benzoyl)-hydrazide], for which the “IL-12 secreted from DC.RheoIL12” value is given as “elevated levels of IL-12 are secreted”.
